This series relates to Hela cells RCB 0007. To be noted: human.

Turning to `O=C(/C=C/c1ccccc1)N[C@@H](c1ccccc1)[C@@H](OC(=O)c1ccccc1)C(=O)NC1CCCCC1` [Compound 4, (2R,3S)-Cyclohexyl 3-(N-cinnamoyl)amino-3-phenyl-2-benzoyloxypropanamide], the cell death ratio entry is on record as “less than 10%”.

(Values after PMC7127027 (Bioorganic & Medicinal Chemistry Letters, 2017).)
